Results on nine compounds are retold here after publication PMC9446148, “Hapten designs based on aldicarb for the development of a colloidal gold immunochromatographic quantitative test strip” (Frontiers in Nutrition, 2022).

The test has as its system anti-aldicarb monoclonal antibody. As to the kind of experiment: icELISA cross-reaction test of the monoclonal antibody. Type of test: binding, mouse. The following applies: for Cross-reaction rate: IC50 of aldicarb relative to IC50 of inhibitor; for IC50: icELISA, inhibitor against anti-aldicarb monoclonal antibody. An excerpt: A mouse monoclonal antibody subtype identification ELISA kit was used to identify the antibody subtype. Indirect competitive ELISA (icELISA) was used to determine the 50% inhibitory mass concentration (IC50) of the monoclonal antibody against aldicarb, and IC50 was used to measure the sensitivity of the monoclonal antibody ([28]). Cross-reaction tests were used to determine specificity, in which aldicarb sulfone, aldicarb sulfoxide, thiofanox, oxamyl, methomyl, metolcarb, isoprocarb, and carbofuran were selected as inhibitors. The IC50 of each inhibitor was determined by icELISA, and the IC50 of the monoclonal antibody against aldicarb and the IC50 of the inhibitor were taken as the cross-reaction rate.
Antibody specificity is the ability of the antibody to bind to a specific antigen in preference over antigen analogs. The cross-reactivity rate is often used as an evaluation standard because an inverse relationship exists between the cross-reactivity rate and the specificity of the antibody. In this study, we selected aldicarb sulfone, aldicarb sulfoxide, thiofanox, oxamyl, methomyl, metolcarb, isoprocarb, and carbofuran, with chemical structures similar to that of aldicarb, for the specificity analysis.

As for `CNC(=O)O/N=C/C(C)(C)SC` [Aldicarb, [(E)-(2-methyl-2-methylsulfanylpropylidene)amino]N-methylcarbamate], the Cross-reaction rate came out at 100%.
On to `CNC(=O)Oc1cccc2c1OC(C)(C)C2` [Carbofuran], for which the Cross-reaction rate was below 0.978% and the IC50 (in general, the concentration that gives 50% inhibition) was above 0.042 µg/mL. The compound also registered a Cross-reaction rate (listed as carbofuran) below 1%.
For `CNC(=O)ON=C(C)SC` [Methomyl], the Cross-reaction rate is below 0.978% and the IC50 was above 0.042 µg/mL. The Cross-reaction rate (listed as methomyl) is below 1%.
With `CNC(=O)O/N=C/C(C)(C)S(C)(=O)=O` [Aldicarb sulfone], the Cross-reaction rate was below 0.978% and the 50% inhibitory concentration (IC50) is above 0.042 µg/mL. The Cross-reaction rate (listed as aldicarb sulfone) is below 1%.
`CNC(=O)O/N=C(\SC)C(=O)N(C)C` [Oxamyl] displayed a Cross-reaction rate below 0.978% and a 50% inhibitory concentration (IC50) above 0.042 µg/mL. Also, the Cross-reaction rate (listed as oxamyl) is listed as below 1%.
In turn, `CNC(=O)Oc1ccccc1C(C)C` [Isoprocarb] yielded a Cross-reaction rate below 0.978% and an IC50 above 0.042 µg/mL. Besides, where the note is “listed as isoprocarb”, the Cross-reaction rate was below 1%.
As to `CNC(=O)O/N=C/C(C)(C)[S+](C)[O-]` (stereo not shown) [Aldicarb sulfoxide], the Cross-reaction rate is below 0.978% and the IC50 is above 0.042 µg/mL. Where the note is “listed as aldicarb sulfoxide”, the Cross-reaction rate is reported as below 1%.
Take `CNC(=O)Oc1cccc(C)c1` [Metolcarb]: the Cross-reaction rate is below 0.978% and the IC50 was above 0.042 µg/mL. The Cross-reaction rate (listed as metolcarb) was below 1%.
Take `CNC(=O)ON=C(CSC)C(C)(C)C` [Thiofanox]: the Cross-reaction rate was below 0.978% and the IC50 is above 0.042 µg/mL. Moreover, the Cross-reaction rate (listed as thiofanox) is listed as below 1%.
